# Data: US20230117324A1, “OXAZINE MONOACYLGLYCEROL LIPASE (MAGL) INHIBITORS” (Hoffmann-La Roche Inc., priority 2018, published 2023)
# Biological target: T1, MAGL (Homo sapiens, UniProt Q99685)
# T1 sequence (Q99685 1-303): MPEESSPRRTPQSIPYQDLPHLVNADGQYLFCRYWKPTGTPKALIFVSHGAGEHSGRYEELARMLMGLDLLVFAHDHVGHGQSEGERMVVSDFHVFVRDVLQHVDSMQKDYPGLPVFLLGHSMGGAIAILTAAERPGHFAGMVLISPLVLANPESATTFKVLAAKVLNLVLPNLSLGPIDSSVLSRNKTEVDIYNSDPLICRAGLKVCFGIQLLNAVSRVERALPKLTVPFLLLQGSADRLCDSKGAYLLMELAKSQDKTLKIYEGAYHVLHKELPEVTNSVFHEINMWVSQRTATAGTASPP
# Assay: MAGL inhibition, 2-AG assay (hydrolysis of 2-arachidonoylglycerol, arachidonic acid by mass spectrometry)
# Type: biochemical
# Settings: 2-AG assay (footnote [b])
# Procedure, shortened: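 Human MAGL […] was preincubated 15 min at RT with compound ([…], 3-fold steps) in 50 mM Tris, 1 mM EDTA, 0.01% Tween. 2-AG (8 μM) was then added for 30 min at RT. Arachidonic acid was quantified by RapidFire SPE–triple quadrupole MS in negative ESI as its ratio to a d8-arachidonic acid standard.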
row,SMILES,IC50
1,"CC(C)(C)OC(=O)NCCOCCC(=O)NCCOc1cccc(C(c2ccccc2)C2CCN(C(=O)N3CC[C@@H]4OCC(=O)N[C@@H]4C3)CC2)c1 (stereo partly drawn) [Example 255, tert-Butyl N-[2-[3-[2-[3-[[1-[(4aR,8aS)-3-oxo-4,4a,5,7,8,8a-hexahydropyrido[4,3-b][1,4]oxazine-6-carbonyl]-4-piperidyl]-phenyl-methyl]phenoxy]ethylamino]-3-oxo-propoxy]ethyl]carbamate]",2 nM
2,"CC(C)(C)OC(=O)NCCOCCOCCC(=O)NCCOc1cccc(C(c2ccccc2)C2CCN(C(=O)N3CC[C@@H]4OCC(=O)N[C@@H]4C3)CC2)c1 (stereo partly drawn) [Example 256, tert-Butyl N-[2-[2-[3-[2-[3-[[1-[(4aR,8aS)-3-oxo-4,4a,5,7,8,8a-hexahydropyrido[4,3-b][1,4]oxazine-6-carbonyl]-4-piperidyl]-phenyl-methyl]phenoxy]ethylamino]-3-oxo-propoxy]ethoxy]ethyl]carbamate]",2 nM
3,"Cc1ccc(C2CN(C(=O)N3CC[C@@H]4OCC(=O)N[C@@H]4C3)C2)cc1C [Example 259, (4aR,8aS)-6-[3-(3,4-Dimethylphenyl)azetidine-1-carbonyl]-4,4a,5,7,8,8a-hexahydropyrido [4,3-b][1,4]oxazin-3-one]",30 nM
4,"CC(C)(C)Cc1ccc(C2CN(C(=O)N3CC[C@@H]4OCC(=O)N[C@@H]4C3)C2)cc1 [Example 261, (4aR,8aS)-6-[3-[4-(2,2-Dimethylpropyl)phenyl]azetidine-1-carbonyl]-4,4a,5,7,8,8a-hexahydropyrido[4,3-b][1,4]oxazin-3-one]",0.07 nM
5,"CC(C)(C)Oc1ccc(C2CN(C(=O)N3CC[C@@H]4OCC(=O)N[C@@H]4C3)C2)cc1 [Example 262, (4aR,8aS)-6-[3-(4-tert-Butoxyphenyl)azetidine-1-carbonyl]-4,4a,5,7,8,8a-hexahydropyrido[4,3-b][1,4]oxazin-3-one]",1 nM
6,"O=C1CO[C@H]2CCN(C(=O)N3CCC(N4CC5(CC5)c5cc(Cl)ccc54)CC3)C[C@H]2N1 [Example 265, (4aR,8aS)-6-[4-(5′-Chlorospiro[cyclopropane-1,3′-indoline]-1′-yl)piperidine-1-carbonyl]-4,4a,5,7,8,8a-hexahydropyrido[4,3-b][1,4]oxazin-3-one]",58 nM
7,"O=C1CO[C@H]2CCN(C(=O)N3CC(N4Cc5cccc(Cl)c5C4)C3)C[C@H]2N1 [Example 266, (4aR,8aS)-6-[3-(4-Chloroisoindolin-2-yl)azetidine-1-carbonyl]-4,4a,5,7,8,8a-hexahydropyrido[4,3-b][1,4]oxazin-3-one]",457 nM
8,"O=C1CO[C@H]2CCN(C(=O)N3CCC(c4cn(CCO)c5ccc(Cl)cc45)CC3)C[C@@H]2N1 [Example 269, (4aS,8aS)-6-[4-[5-Chloro-1-(2-hydroxyethyl)indol-3-yl]piperidine-1-carbonyl]-4,4a,5,7,8,8a-hexahydropyrido[4,3-b][1,4]oxazin-3-one]",530 nM
9,"O=C1CO[C@H]2CCN(C(=O)N3CC(c4ccc(N5CCC(C(F)(F)F)C5)cn4)C3)C[C@H]2N1 (stereo partly drawn) [Example 270, (4aR,8aS)-6-(3-(5-(3-(Trifluoromethyl)pyrrolidin-1-yl)pyridin-2-yl)azetidine-1-carbonyl)hexahydro-2H-pyrido[4,3-b][1,4]oxazin-3(4H)-one]",26 nM
10,"O=C1CO[C@H]2CCN(C(=O)N3CC(c4ccc(N5CCC(C(F)(F)F)C5)nc4)C3)C[C@H]2N1 (stereo partly drawn) [Example 273, (4aR,8aS)-6-[3-[6-[3-(Trifluoromethyl)pyrrolidin-1-yl]-3-pyridyl]azetidine-1-carbonyl]-4,4a,5,7,8,8a-hexahydropyrido[4,3-b][1,4]oxazin-3-one]",2 nM
11,"CC(C)(C)COc1ccc(C2CN(C(=O)N3CC[C@@H]4OCC(=O)N[C@@H]4C3)C2)cc1 [Example 278, (4aR,8aS)-6-(3-(4-(Neopentyloxy)phenyl)azetidine-1-carbonyl)hexahydro-2H-pyrido[4,3-b][1,4]oxazin-3(4H)-one]",0.1 nM

# More lines, now with the values ahead:
row,IC50,SMILES
1,233 nM,"O=C1CO[C@H]2CCN(C(=O)N3CC(c4ccn(-c5ccc(Cl)cc5Cl)n4)C3)C[C@H]2N1 [Example 257, (4aR,8aS)-6-[3-[1-(2,4-Dichlorophenyl)pyrazol-3-yl]azetidine-1-carbonyl]-4,4a,5,7,8,8a-hexahydropyrido[4,3-b][1,4]oxazin-3-one]"
2,5 nM,"CCCOc1ccc(C2CN(C(=O)N3CC[C@@H]4OCC(=O)N[C@@H]4C3)C2)cc1 [Example 258, (4aR,8aS)-6-[3-(4-Propoxyphenyl)azetidine-1-carbonyl]-4,4a,5,7,8,8a-hexahydropyrido[4,3-b][1,4]oxazin-3-one]"
3,3 nM,"CCNC(=O)c1cc(C)ccc1-c1ccc(C2CN(C(=O)N3CC[C@@H]4OCC(=O)N[C@@H]4C3)C2)cc1 [Example 260, 2-[4-[1-[(4aR,8aS)-3-Oxo-4,4a,5,7,8,8a-hexahydropyrido[4,3-b][1,4]oxazine-6-carbonyl]azetidin-3-yl]phenyl]-N-ethyl-5-methyl-benzamide]"
4,16 nM,"O=C1CO[C@H]2CCN(C(=O)N3CCC(N4CCc5cc(Cl)ccc54)CC3)C[C@H]2N1 [Example 263, (4aR,8aS)-6-[4-(5-Chloroindolin-1-yl)piperidine-1-carbonyl]-4,4a,5,7,8,8a-hexahydropyrido[4,3-b][1,4]oxazin-3-one]"
5,146 nM,"O=C1CO[C@H]2CCN(C(=O)N3CCC(N4Cc5cccc(Cl)c5C4)CC3)C[C@H]2N1 [Example 264, (4aR,8aS)-6-[4-(4-Chloroisoindolin-2-yl)piperidine-1-carbonyl]-4,4a,5,7,8,8a-hexahydropyrido[4,3-b][1,4]oxazin-3-one]"
6,4 nM,"O=C1CO[C@H]2CCN(C(=O)N3CC(c4ccc(N5CCC(C(F)(F)F)C5)nc4)C3)C[C@H]2N1 (stereo partly drawn) [Example 275, (4aR,8aS)-6-[3-[6-[3S-or 3R-(trifluoromethyl)pyrrolidin-1-yl]-3-pyridyl]azetidine-1-carbonyl]-4,4a,5,7,8,8a-hexahydropyrido[4,3-b][1,4]oxazin-3-one]"
7,4 nM,"O=C1CO[C@H]2CCN(C(=O)N3CC(c4ccc(C5CCCOC5)cc4)C3)C[C@H]2N1 (stereo partly drawn) [Example 276, (4aR,8aS)-6-[3-(4-Tetrahydropyran-3-ylphenyl)azetidine-1-carbonyl]-4,4a,5,7,8,8a-hexahydropyrido[4,3-b][1,4]oxazin-3-one]"
8,2 nM,"COc1cc(CC(F)(F)F)ccc1C1CN(C(=O)N2CC[C@@H]3OCC(=O)N[C@@H]3C2)C1 [Example 277, (4aR,8aS)-6-[3-[2-Methoxy-4-(2,2,2-trifluoroethyl)phenyl]azetidine-1-carbonyl]-4,4a,5,7,8,8a-hexahydropyrido[4,3-b][1,4]oxazin-3-one]"
